Like-named read-outs stand apart in the source and are kept apart here.
Columns and labels:
c-kit = biological target: T1, c-kit (Homo sapiens, UniProt P10721); experiment: Inhibitory activity against c-kit autophosphorylation (MO7e cells, h-SCF); assay type: cell-based; conditions: for IC50: MO7e cells, read-out: c-kit IC50; for inhibition at 1 µM: Mo7e, at 1000 nM
T1 construct: MO7e (human megakaryocytic leukemia cell line) which had been arrested for 20 hr; endogenous in cells; host or cells: MO7e human megakaryocytic leukemia cell line
T1 sequence (P10721 26-976): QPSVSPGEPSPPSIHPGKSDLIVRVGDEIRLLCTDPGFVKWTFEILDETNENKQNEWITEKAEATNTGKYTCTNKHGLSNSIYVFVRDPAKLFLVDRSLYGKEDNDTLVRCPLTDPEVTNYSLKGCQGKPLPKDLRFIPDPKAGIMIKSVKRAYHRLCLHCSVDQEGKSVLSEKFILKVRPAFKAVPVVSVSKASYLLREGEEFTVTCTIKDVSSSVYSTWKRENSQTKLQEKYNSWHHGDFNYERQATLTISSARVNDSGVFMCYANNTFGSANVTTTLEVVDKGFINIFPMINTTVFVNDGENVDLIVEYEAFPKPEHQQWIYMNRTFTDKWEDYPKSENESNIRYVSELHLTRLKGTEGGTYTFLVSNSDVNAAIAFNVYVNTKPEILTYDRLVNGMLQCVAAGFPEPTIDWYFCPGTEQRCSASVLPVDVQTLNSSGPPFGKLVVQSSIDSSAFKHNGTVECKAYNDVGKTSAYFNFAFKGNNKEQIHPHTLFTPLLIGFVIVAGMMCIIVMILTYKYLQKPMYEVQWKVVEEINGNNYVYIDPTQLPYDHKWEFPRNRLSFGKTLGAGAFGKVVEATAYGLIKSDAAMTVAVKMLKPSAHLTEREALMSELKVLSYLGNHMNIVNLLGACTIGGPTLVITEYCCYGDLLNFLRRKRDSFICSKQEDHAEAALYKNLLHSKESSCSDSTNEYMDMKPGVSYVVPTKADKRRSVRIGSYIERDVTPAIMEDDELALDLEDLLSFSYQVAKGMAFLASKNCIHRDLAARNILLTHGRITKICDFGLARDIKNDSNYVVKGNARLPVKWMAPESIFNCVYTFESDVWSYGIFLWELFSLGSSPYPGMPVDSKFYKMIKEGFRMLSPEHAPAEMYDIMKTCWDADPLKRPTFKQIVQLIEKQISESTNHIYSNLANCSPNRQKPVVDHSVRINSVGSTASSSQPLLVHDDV
Procedure, shortened: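 Growth-arrested (20 hr) MO7e; cpd in DMSO, 1 hr; h-SCF 50 ng/ml, 5 min; lyse. ELISA: anti-pTyr (PY-20) capture, anti-c-kit 1° Ab, HRP anti-rabbit 2° Ab, A450.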

PDGF-Ra = biological target: T2, PDGF-Ra (Homo sapiens, UniProt P16234); experiment: Inhibitory activity against PDGF-Ra phosphorylation by PDGF-AA stimulation using G292; assay type: cell-based; conditions: for IC50: > means inhibition at indicated concentration not more than 50%, < and << not less than 50%, read-out: PDGF (E) IC50; for inhibition at 0.1 µM: G292, at 100 nM, read-out: PDGF (E) inhibition (%) at 100 nM
T2 construct: host or cells: G-292 human osteosarcoma cells
T2 sequence (P16234 24-1089): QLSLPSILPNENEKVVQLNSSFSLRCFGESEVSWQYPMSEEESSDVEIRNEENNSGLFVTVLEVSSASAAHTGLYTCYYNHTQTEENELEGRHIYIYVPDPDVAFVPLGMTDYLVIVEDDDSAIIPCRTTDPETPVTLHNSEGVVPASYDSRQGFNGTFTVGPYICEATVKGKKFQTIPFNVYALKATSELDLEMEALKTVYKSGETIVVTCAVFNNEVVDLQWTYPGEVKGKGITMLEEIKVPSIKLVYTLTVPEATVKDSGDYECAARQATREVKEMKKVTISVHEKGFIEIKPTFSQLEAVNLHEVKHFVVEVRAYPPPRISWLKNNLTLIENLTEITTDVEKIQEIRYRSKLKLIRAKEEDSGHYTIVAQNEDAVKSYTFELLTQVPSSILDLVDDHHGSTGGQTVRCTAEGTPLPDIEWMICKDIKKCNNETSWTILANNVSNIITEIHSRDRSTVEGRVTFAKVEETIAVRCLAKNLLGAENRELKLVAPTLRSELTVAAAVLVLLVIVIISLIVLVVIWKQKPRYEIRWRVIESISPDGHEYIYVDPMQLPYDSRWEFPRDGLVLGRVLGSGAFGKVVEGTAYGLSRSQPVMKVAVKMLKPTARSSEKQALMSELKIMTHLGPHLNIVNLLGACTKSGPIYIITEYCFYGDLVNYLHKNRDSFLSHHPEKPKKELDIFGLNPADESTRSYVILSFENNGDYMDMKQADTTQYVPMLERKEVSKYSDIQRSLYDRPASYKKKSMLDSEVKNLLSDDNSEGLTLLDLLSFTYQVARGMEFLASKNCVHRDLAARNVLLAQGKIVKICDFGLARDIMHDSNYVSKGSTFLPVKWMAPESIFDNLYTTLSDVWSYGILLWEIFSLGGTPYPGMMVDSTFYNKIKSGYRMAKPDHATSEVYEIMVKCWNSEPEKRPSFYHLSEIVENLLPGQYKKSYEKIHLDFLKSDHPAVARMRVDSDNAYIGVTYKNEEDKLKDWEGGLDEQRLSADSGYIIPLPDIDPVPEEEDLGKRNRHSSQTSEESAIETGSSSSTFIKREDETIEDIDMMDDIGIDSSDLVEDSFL
Procedure, shortened: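 G-292 human osteosarcoma cells in 0.1% FBS medium overnight, given compound for 1 hr at 37° C, then PDGF-AA 50 ng/ml for 5 min. Lysates captured on anti-phosphotyrosine (PY-20) plates and probed with anti-PDGF-Ra plus HRP secondary; absorbance at 450 nm.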

[1] = figure within parentheses in −( ) or >1000( )
[2] = figure within parentheses in >100( )

Row | SMILES | IC50 (c-kit; h-SCF 50 ng/ml) [nM] | IC50 (PDGF-Ra; Pharmacological Test Example 1) [nM] | IC50 (PDGF-Ra) [nM] | IC50 (c-kit; 50 ng/ml h-SCF) [nM] | further results
1 | COc1cccc(OCCCOC(=O)Nc2ccc(Oc3ncnc4cc(OC)c(OC)cc34)cc2Cl)c1 [Example 51, 3-(3-Methoxyphenoxy)propyl N-{2-chloro-4-[(6,7-dimethoxy-4-quinazolinyl)oxy]phenyl}carbamate] | 270 | 14 | – | – | –
2 | COc1cc2nccc(Oc3ccc(NC(=S)NC(=O)c4ccc(CCl)cc4)cc3Cl)c2cc1OC [Example 1137, N-{3-Chloro-4-[(6,7-dimethoxy-4-quinolyl)oxy]phenyl}-N′-[4-(chloromethyl)benzoyl]thiourea] | – | – | 28 | – | inhibition at 1 µM (c-kit; figure in parentheses in −( )): 38%
3 | COc1cc2nccc(Oc3ccc(NC(=O)NC4CC(C)(C)NC(C)(C)C4)cc3)c2cc1OC [Example 562, N-{4-[(6,7-Dimethoxy-4-quinolyl)oxy]-phenyl}-N′-(2,2,6,6-tetramethyl-4-piperidyl)urea] | – | – | 80 | – | inhibition at 1 µM (c-kit; [1]): 27%
4 | COc1cc2nccc(Oc3ccc(NC(=O)OCCN4CCOCC4)c(C)c3C)c2cc1OC [Example 308, 2-Morpholinoethyl N-{4-[(6,7-dimethoxy-4-quinolyl)oxy]-2,3-dimethylphenyl}carbamate] | 101 | 20 | – | – | –
5 | COc1cc2nccc(Oc3ccc(NC(=O)Oc4c(OC)cccc4OC)c(C)c3C)c2cc1OC [Example 282, 2,6-Dimethoxyphenyl N-{4-[(6,7-dimethoxy-4-quinolyl)oxy]-2,3-dimethylphenyl}carbamate] | 48 | 34 | – | – | –
6 | COc1cc2nccc(Oc3ccc(NC(=S)NC(=O)C4CC4)cc3Cl)c2cc1OC [Example 1058, N-{3-Chloro-4-[(6,7-dimethoxy-4-quinolyl)oxy]phenyl}-N′-cyclopropylcarbonylthiourea] | – | – | 8 | – | inhibition at 1 µM (c-kit; figure in parentheses in −( )): 21%
7 | COc1cc2ncnc(Oc3ccc(NC(=O)OC4CCCCC4)cc3)c2cc1OC [Example 312, Cyclohexyl N-{4-[(6,7-dimethoxy-4-quinazolinyl)oxy]phenyl}carbamate] | 29 | < 10 | – | – | –
8 | COc1cc2nccc(Oc3ccc(NC(=O)OCC4CCC4)c(C)c3C)c2cc1OC [Example 387, Cyclobutylmethyl N-{4-[(6,7-dimethoxy-4-quinolyl)oxy]-2,3-dimethylphenyl}carbamate] | 31 | < 10 | – | – | –
9 | COc1cc2nccc(Oc3ccc(NC(=S)NCCN(C(C)C)C(C)C)c(C)c3C)c2cc1OC [Example 550, N-{4-[(6,7-Dimethoxy-4-quinolyl)oxy]-2,3-dimethylphenyl}-N′-(2-diisopropylaminoethyl)thiourea] | – | – | 77 | 536 | –
10 | COc1cc2nccc(Oc3ccc(NC(=S)NC(=O)c4cccc(C)c4C)cc3)c2cc1OC [Example 1005, N-{4-[(6,7-Dimethoxy-4-quinolyl)oxy]phenyl}-N′-(2,3-dimethylbenzoyl)thiourea] | – | – | 28 | – | IC50 (c-kit; h-SCF stimulation): 674 nM
11 | COc1cc2ncnc(Oc3ccc(NC(=O)OCC4CCC4)cc3)c2cc1OC [Example 388, Cyclobutylmethyl N-{4-[(6,7-dimethoxy-4-quinazolinyl)oxy]phenyl}carbamate] | 60 | 12 | – | – | –
12 | CCCCN(CCCC)CCNC(=O)Nc1ccc(Oc2ccnc3cc(OC)c(OC)cc23)cc1 [Example 682, N-[2-(Dibutylamino)ethyl]-N′-{4-[(6,7-dimethoxy-4-quinolyl)oxy]phenyl}urea] | – | – | > 100 | – | inhibition at 1 µM (c-kit; [1]): 32%; inhibition at 0.1 µM (PDGF-Ra; [2]): 30%
13 | COc1cc2ncnc(Oc3ccc(NC(=S)NCc4ccccc4)cc3)c2cc1OC [Example 707, N-Benzyl-N′-{4-[(6,7-dimethoxy-4-quinazolinyl)oxy]phenyl}thiourea] | – | – | 17 | 209 | –
14 | CCCOC(=O)Nc1ccc(Oc2ccnc3cc(OC)c(OC)cc23)cc1 [Example 247, Propyl N-{4-[(6,7-dimethoxy-4-quinolyl)oxy]phenyl}carbamate] | 40 | 3 | – | – | –
15 | COc1cc2nccc(Oc3cc(C)c(NC(=S)NCCN(C)C)cc3C)c2cc1OC [Example 538, N-{4-[(6,7-Dimethoxy-4-quinolyl)oxy]-2,5-dimethylphenyl}-N′-(2-dimethylaminoethyl)thiourea] | – | – | > 100 | 768 | inhibition at 0.1 µM (PDGF-Ra; [2]): 22%
16 | CCN(CCNC(=O)Nc1ccc(Oc2ccnc3cc(OC)c(OC)cc23)cc1[N+](=O)[O-])c1cccc(C)c1 [Example 666, N-{4-[(6,7-Dimethoxy-4-quinolyl)oxy]-2-nitrophenyl}-N′-[2-(ethyl-3-methylanilino)ethyl]urea] | – | – | 10 | 134 | –

Row | SMILES | IC50 (c-kit; h-SCF 50 ng/ml) [nM] | IC50 (PDGF-Ra; Pharmacological Test Example 1) [nM] | IC50 (PDGF-Ra) [nM] | IC50 (c-kit; 50 ng/ml h-SCF) [nM] | further results
17 | COc1cc2nccc(Oc3ccc(NC(=O)OCCN4C(=O)c5ccccc5C4=O)c(C)c3C)c2cc1OC [Example 420, 2-(1,3-Dioxo-2,3-dihydro-1H-2-isoindolyl)ethyl N-{4-[(6,7-dimethoxy-4-quinolyl)oxy]-2,3-dimethylphenyl}carbamate] | – | – | 16 | 77 | –
18 | COc1cc2nccc(Oc3ccc(NC(=O)OCCCN4CCCCC4)c(C)c3C)c2cc1OC [Example 415, 3-Piperidinopropyl N-{4-[(6,7-dimethoxy-4-quinolyl)oxy]-2,3-dimethylphenyl}carbamate] | – | – | 24 | 98 | –
19 | COc1cccc(C(C)OC(=O)Nc2cc(C)c(Oc3ccnc4cc(OC)c(OC)cc34)cc2C)c1 (stereo not drawn) [Example 54, 1-(3-Methoxyphenyl)ethyl N-{4-[(6,7-dimethoxy-4-quinolyl)oxy]-2,5-dimethylphenyl}carbamate] | 473 | 15 | – | – | –
20 | COc1cc2ncnc(Oc3ccc(NC(=S)NC(=O)CCCCl)cc3)c2cc1OC [Example 1186, N-(4-Chlorobutanoyl)-N′-{4-[(6,7-dimethoxy-4-quinazolinyl)oxy]phenyl}thiourea] | – | – | < 10 | – | IC50 (c-kit; h-SCF stimulation): 405 nM
21 | COc1cc2ncnc(Oc3ccc(NC(=O)OCCCSc4ccc(C)cc4)c(Cl)c3)c2cc1OC [Example 41, 3-[(4-Methylphenyl)sulfanyl)propyl N-{2-chloro-4-[(6,7-dimethoxy-4-quinazolinyl)oxy]phenyl}-carbamate] | 185 | < 10 | – | – | –
22 | CCCC(CCC)OC(=O)Nc1ccc(Oc2ccnc3cc(OC)c(OC)cc23)c(C)c1C [Example 334, 1-Propylbutyl N-{4-[(6,7-dimethoxy-4-quinolyl)oxy]-2,3-dimethylphenyl}carbamate] | 484 | < 10 | – | – | –
23 | COc1cc2nccc(Oc3ccc(NC(=S)NC(=O)C4C(C)(C)C4(C)C)cc3)c2cc1OC [Example 759] | – | – | 26 | 323 | –
24 | COc1cc2ncnc(Oc3ccc(OCC(=O)N4CCC(N5CCCCC5)CC4)cc3)c2cc1OC [Example 805, 2-{4-[(6,7-Dimethoxy-4-quinazolinyl)oxy]phenoxy}-1-(4-piperidinopiperidino)-1-ethanone] | – | – | > 100 | – | inhibition at 1 µM (c-kit; [1]): 35%; inhibition at 0.1 µM (PDGF-Ra; [2]): 14%
25 | COc1cc2nccc(Oc3ccc(NC(=S)NC(=O)CCc4ccccc4C)cc3)c2cc1OC [Example 731, N-{4-[(6,7-Dimethoxy-4-quinolyl)oxy]phenyl}-N′-[3-(2-methylphenyl)propanoyl]thiourea] | – | – | 17 | 259 | –
26 | COc1cc2ncnc(Oc3ccc(NC(=S)NC(=O)Cc4ccccc4)cc3)c2cc1OC [Example 1148, N-{4-[(6,7-Dimethoxy-4-quinazolinyl)oxy]phenyl}-N′-(2-phenylacetyl)thiourea] | – | – | < 10 | – | IC50 (c-kit; h-SCF stimulation): 42 nM
27 | COc1cc2nccc(Oc3cc(C)c(NC(=O)OCCCOc4ccccc4OC)cc3C)c2cc1OC [Example 159, 3-(2-Methoxyphenoxy)propyl N-{4-[(6,7-dimethoxy-4-quinolyl)oxy]-2,5-dimethylphenyl}carbamate] | 147 | 52 | – | – | –
28 | COc1cc2nccc(Oc3ccc(NC(=S)NC(=O)c4cc(Cl)cc(Cl)c4)c(F)c3)c2cc1OC [Example 1122, N-(3,5-Dichlorobenzoyl)-N′-{4-[(6,7-dimethoxy-4-quinolyl)oxy]-2-fluorophenyl}thiourea] | – | – | > 100 | – | inhibition at 1 µM (c-kit; figure in parentheses in −( )): 26%; inhibition at 0.1 µM (PDGF-Ra; figure in parentheses in >100( )): 48%
29 | CCN(CCNC(=O)Nc1ccc(Oc2ccnc3cc(OC)c(OC)cc23)cc1Cl)c1cccc(C)c1 [Example 669, N-{2-Chloro-4-[(6,7-dimethoxy-4-quinolyl)oxy]phenyl}-N′-[2-(ethyl-3-methylanilino)ethyl]urea] | – | – | 23 | 134 | –
30 | COc1cc2nccc(Oc3ccc(NCCCOc4ccccc4C)cc3)c2cc1OC [Example 888, N-{4-[(6,7-Dimethoxy-4-quinolyl)oxy]phenyl}-N-[3-(2-methylphenoxy)propyl]amine] | – | – | 12 | – | IC50 (c-kit; h-SCF stimulation): 385 nM
31 | COc1cc2nccc(Oc3ccc(NC(=S)NCCN(C)C)c(C)c3C)c2cc1OC [Example 542, N-{4-[(6,7-Dimethoxy-4-quinolyl)oxy]-2,3-dimethylphenyl}-N′-(2-dimethylaminoethyl)thiourea] | – | – | > 100 | 442 | inhibition at 0.1 µM (PDGF-Ra; [2]): 45%
32 | COc1cc2ncnc(Oc3ccc(NC(=O)OCCCSc4ccccn4)cc3)c2cc1OC [Example 175, 3-(2-Pyridylsulfanyl)propyl N-{4-[(6,7-dimethoxy-4-quinazolinyl)oxy]phenyl}carbamate] | 45 | < 10 | – | – | –

Reference: patent publication US7135466B2 (Kirin Beer Kabushiki Kaisha, priority 1999, dated 2006)
